Experimental data from PMC11555678, “Improved Broad Spectrum Antifungal Drug Synergies with Cryptomycin, a Cdc50-Inspired Antifungal Peptide” (ACS Infectious Diseases, 2024).
In brackets after ≈: the same amount, converted by molar mass. Where two headings read alike, the source gives them in different places.

Experiments:
Cn MRL862 = format: cell-based, Cryptococcus neoformans; details: RPMI1640, 37 °C, 48 h
Experimental: (§1) All microdilution assays with fungi were carried out in accordance with CLSI protocols from M27 for yeasts and M38 for filamentous fungi, respectively, unless otherwise specified.[64],[65] Briefly, 96-well plates were charged with RPMI1640 media, with operating volume in the first column, 200 μL, and half operating volume, 100 μL, in the remaining wells. Drug stock solution in DMSO was aliquoted into the first well in each row. Half of the volume in the dosed well was serially diluted 2-fold until column 11. Column 11 was used as the negative growth control, and column 12 was used as the positive growth control. ON yeast cultures in YPD were washed twice in DD-H2O, resuspended in PBS, and adjusted to 5000 cfu/mL in RPMI. The 96-well plate was inoculated with 100 μL aliquots of cell suspension per well. Plates were incubated at 37 °C for 2 days.
(§2) To assess drug synergy, the initial media charged to the plate contained the peptide at twice the final operating concentration; the remaining processing steps were identical to the MIC experiment. Upon addition of 100 μL of inoculant, the final operating concentration was achieved. Control MIC plates were prepared alongside drug synergy plates to account for the day-to-day variability in any individual MIC. FIC index is computed using eq 1. All MIC assays and drug synergy assays were completed with two technical replicates per 96-well plate and a minimum of two biological replicates per drug combination. If a difference in MIC between the two technical replicates on the plate were observed, only the higher concentration was reported as the MIC to reduce the possibility of type 1 error (false positive) [drawing 1] 1

A. fumigatus AF293 [1] = test: microbe, parasite or virus in culture; format: cell-based, Aspergillus fumigatus; details: Aspergillus fumigatus, AF293, 48 h
C. albicans SC5413 [2] = test: microbe, parasite or virus in culture; format: cell-based, Candida albicans; details: Candida albicans, SC5413; compound alone; RPMI1640, 37 °C, 48 h; read-out: MIC
Procedure, shortened: (§3)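 Yeasts were grown overnight in YPD, washed twice in water, taken up in PBS and diluted to 5000 cfu/mL in RPMI. They were then added to plates holding 2-fold serial drug dilutions in RPMI1640 and incubated at 37 °C for 2 days.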

C. albicans SC5413 [3] = format: cell-based, Candida albicans; details: RPMI1640, 37 °C, 48 h; for MIC of antifungal in combination with KKOO: azole MICs unclear (intermediate phenotype); for MIC of antifungal in combination with KKOO-NH2: azole MICs could not be determined (intermediate phenotype)
Experimental: as §1, §2

A. fumigatus AF293 [4] = test: Drug synergy (MIC in peptide-supplemented media); format: cell-based, Aspergillus fumigatus; details: RPMI1640, 37 °C, 48 h, CAS: paradoxical growth; for MIC of antifungal in combination with KKOO: MIC = <20% growth; for MIC of antifungal in combination with KKOO-NH2: MIC = well with <20% growth
Experimental: as §1, §2

C. glabrata 2001 [5] = test: microbe, parasite or virus in culture; format: cell-based, Candida glabrata; details: Nakaseomyces glabratus, 2001; compound alone; RPMI1640, 37 °C, 48 h; read-out: MIC
Procedure, shortened: as §3

C. glabrata FKS1-S629P = test: microbe, parasite or virus in culture; format: cell-based, Candida glabrata; details: Nakaseomyces glabratus, FKS1S629P, 48 h
Procedure, shortened: as §3

C. glabrata FKS2-S663P = test: microbe, parasite or virus in culture; format: cell-based, Candida glabrata; details: Nakaseomyces glabratus, FKS2S663P, 48 h
Procedure, shortened: as §3

C. auris B11245 [6] = format: cell-based, Candida auris; details: for MIC of antifungal in combination with KKOO / MIC of antifungal in combination with KKOO-NH2: RPMI1640, 37 °C, 48 h, CAS: paradoxical growth; for MIC of antifungal in combination with KKOO: MIC = <20% growth; for MIC of antifungal in combination with KKOO-NH2: MIC = well with <20% growth
Experimental: as §1, §2

C. auris B11245 [7] = test: microbe, parasite or virus in culture; format: cell-based, Candida auris; details: Candidozyma auris, B11245; compound alone; RPMI1640, 37 °C, 48 h; * = paradoxical growth observed (CAS); read-out: MIC
Procedure, shortened: as §3

C. glabrata 2001 [8] = format: cell-based, Candida glabrata; details: for MIC of antifungal in combination with KKOO / MIC of antifungal in combination with KKOO-NH2: RPMI1640, 37 °C, 48 h
Experimental: as §1, §2

C. neoformans apt1Δ = test: microbe, parasite or virus in culture; format: cell-based, Cryptococcus neoformans; details: Cryptococcus neoformans, 48 h
Procedure, shortened: as §3

C. neoformans apt4Δ = test: microbe, parasite or virus in culture; format: cell-based, Cryptococcus neoformans; details: Cryptococcus neoformans, 48 h
Procedure, shortened: as §3

C. neoformans cdc50Δ = test: microbe, parasite or virus in culture; format: cell-based, Cryptococcus neoformans; details: Cryptococcus neoformans, 48 h
Procedure, shortened: as §3

C. neoformans apt3Δ = test: microbe, parasite or virus in culture; format: cell-based, Cryptococcus neoformans; details: Cryptococcus neoformans, 48 h
Procedure, shortened: as §3

C. neoformans H99 = test: microbe, parasite or virus in culture; format: cell-based, Cryptococcus neoformans; details: Cryptococcus neoformans, H99; compound alone; RPMI1640, 37 °C, 48 h; read-out: MIC
Procedure, shortened: as §3

C. neoformans apt2Δ = test: microbe, parasite or virus in culture; format: cell-based, Cryptococcus neoformans; details: Cryptococcus neoformans, 48 h
Procedure, shortened: as §3

C. neoformans crm1Δ = test: microbe, parasite or virus in culture; format: cell-based, Cryptococcus neoformans; details: Cryptococcus neoformans, 48 h
Procedure, shortened: as §3

C. neoformans Crm1^OE = test: microbe, parasite or virus in culture; format: cell-based, Cryptococcus neoformans; details: Cryptococcus neoformans, 48 h
Procedure, shortened: as §3

C. neoformans MRL862 = test: microbe, parasite or virus in culture; format: cell-based, Cryptococcus neoformans; details: Cryptococcus neoformans, MRL862; compound alone; RPMI1640, 37 °C, 48 h; read-out: MIC
Procedure, shortened: as §3

## CC[C@H](C)C[C@H](C)CCCCCCCCC(=O)N[C@H]1C[C@@H](O)[C@@H](NCCN)NC(=O)[C@@H]2[C@@H](O)CCN2C(=O)[C@H]([C@H](O)CCN)NC(=O)[C@H]([C@H](O)[C@@H](O)c2ccc(O)cc2)NC(=O)[C@@H]2C[C@@H](O)CN2C(=O)[C@H]([C@@H](C)O)NC1=O [CAS, caspofungin]
Cn MRL862; +0 μg/mL KKOO (control)
  MIC of antifungal in combination with KKOO: 16 mg/L
Cn MRL862; +0 μg/mL KKOO-NH2 (control)
  MIC of antifungal in combination with KKOO-NH2: 16 mg/L
Cn MRL862; +1 μg/mL KKOO-NH2
  MIC of antifungal in combination with KKOO-NH2: 16 mg/L
Cn MRL862; +1 μg/mL KKOO
  MIC of antifungal in combination with KKOO: 16 mg/L
Cn MRL862; +2 μg/mL KKOO-NH2
  MIC of antifungal in combination with KKOO-NH2: 8 mg/L
Cn MRL862; +2 μg/mL KKOO
  MIC of antifungal in combination with KKOO: 16 mg/L
Cn MRL862; +4 μg/mL KKOO-NH2
  MIC of antifungal in combination with KKOO-NH2: 4 mg/L
Cn MRL862; +4 μg/mL KKOO
  MIC of antifungal in combination with KKOO: 8 mg/L
A. fumigatus AF293 [1]
  MIC: 0.125 mg/L (≈ 0.114 µM)
C. albicans SC5413 [2]
  MIC: 0.25 mg/L (≈ 0.229 µM)
C. albicans SC5413 [3]; +0 μg/mL KKOO (control)
  MIC of antifungal in combination with KKOO: 0.25 mg/L
C. albicans SC5413 [3]; +0 μg/mL KKOO-NH2 (control)
  MIC of antifungal in combination with KKOO-NH2: 0.25 mg/L
C. albicans SC5413 [3]; +1 μg/mL KKOO-NH2
  MIC of antifungal in combination with KKOO-NH2: 0.5 mg/L
C. albicans SC5413 [3]; +1 μg/mL KKOO
  MIC of antifungal in combination with KKOO: 0.5 mg/L
C. albicans SC5413 [3]; +2 μg/mL KKOO-NH2
  MIC of antifungal in combination with KKOO-NH2: 0.062 mg/L
C. albicans SC5413 [3]; +2 μg/mL KKOO
  MIC of antifungal in combination with KKOO: 0.125 mg/L
C. albicans SC5413 [3]; +4 μg/mL KKOO-NH2
  MIC of antifungal in combination with KKOO-NH2: 0.008 mg/L
C. albicans SC5413 [3]; +4 μg/mL KKOO
  MIC of antifungal in combination with KKOO: 0.556 mg/L
C. albicans SC5413 [3]; +8 μg/mL KKOO
  MIC of antifungal in combination with KKOO: 0.008 mg/L
A. fumigatus AF293 [4]; +0 μg/mL KKOO (control)
  MIC of antifungal in combination with KKOO: 0.125 mg/L
A. fumigatus AF293 [4]; +0 μg/mL KKOO-NH2 (control)
  MIC of antifungal in combination with KKOO-NH2: 0.125 mg/L
A. fumigatus AF293 [4]; +1 μg/mL KKOO-NH2
  MIC of antifungal in combination with KKOO-NH2: 0.031 mg/L
A. fumigatus AF293 [4]; +1 μg/mL KKOO
  MIC of antifungal in combination with KKOO: 0.062 mg/L
A. fumigatus AF293 [4]; +2 μg/mL KKOO-NH2
  MIC of antifungal in combination with KKOO-NH2: 0.031 mg/L
A. fumigatus AF293 [4]; +2 μg/mL KKOO
  MIC of antifungal in combination with KKOO: 0.031 mg/L
A. fumigatus AF293 [4]; +4 μg/mL KKOO-NH2
  MIC of antifungal in combination with KKOO-NH2: 0.031 mg/L
A. fumigatus AF293 [4]; +4 μg/mL KKOO
  MIC of antifungal in combination with KKOO: 0.031 mg/L
A. fumigatus AF293 [4]; +8 μg/mL KKOO-NH2
  MIC of antifungal in combination with KKOO-NH2: 0.031 mg/L
C. glabrata 2001 [5]
  MIC: 0.5 mg/L (≈ 0.457 µM)
C. glabrata FKS1-S629P
  MIC: 2 mg/L (≈ 1.83 µM)
C. glabrata FKS2-S663P
  MIC: 4 mg/L (≈ 3.66 µM)
C. auris B11245 [6]; +0 μg/mL KKOO (control)
  MIC of antifungal in combination with KKOO: 1 mg/L
C. auris B11245 [6]; +0 μg/mL KKOO-NH2 (control)
  MIC of antifungal in combination with KKOO-NH2: 1 mg/L
C. auris B11245 [6]; +1 μg/mL KKOO-NH2
  MIC of antifungal in combination with KKOO-NH2: 0.5 mg/L
C. auris B11245 [6]; +1 μg/mL KKOO
  MIC of antifungal in combination with KKOO: 1 mg/L
C. auris B11245 [6]; +2 μg/mL KKOO-NH2
  MIC of antifungal in combination with KKOO-NH2: 0.125 mg/L
C. auris B11245 [6]; +2 μg/mL KKOO
  MIC of antifungal in combination with KKOO: 0.25 mg/L
C. auris B11245 [6]; +4 μg/mL KKOO-NH2
  MIC of antifungal in combination with KKOO-NH2: 0.031 mg/L
C. auris B11245 [6]; +4 μg/mL KKOO
  MIC of antifungal in combination with KKOO: 0.031 mg/L
C. auris B11245 [6]; in the presence of 2 μg/mL KKOO-NH2, 48 h
  reduction of MIC of antifungal: 8 fold
C. auris B11245 [7]
  MIC: 1 mg/L (≈ 0.915 µM)
C. glabrata 2001 [8]; +0 μg/mL KKOO (control)
  MIC of antifungal in combination with KKOO: 0.5 mg/L
C. glabrata 2001 [8]; +0 μg/mL KKOO-NH2 (control)
  MIC of antifungal in combination with KKOO-NH2: 0.5 mg/L
C. glabrata 2001 [8]; +1 μg/mL KKOO-NH2
  MIC of antifungal in combination with KKOO-NH2: 0.5 mg/L
C. glabrata 2001 [8]; +1 μg/mL KKOO
  MIC of antifungal in combination with KKOO: 0.5 mg/L
C. glabrata 2001 [8]; +2 μg/mL KKOO-NH2
  MIC of antifungal in combination with KKOO-NH2: 0.125 mg/L
C. glabrata 2001 [8]; +2 μg/mL KKOO
  MIC of antifungal in combination with KKOO: 0.25 mg/L
C. glabrata 2001 [8]; +4 μg/mL KKOO-NH2
  MIC of antifungal in combination with KKOO-NH2: 0.004 mg/L
C. glabrata 2001 [8]; +4 μg/mL KKOO
  MIC of antifungal in combination with KKOO: 0.016 mg/L
C. glabrata 2001 [8]; +8 μg/mL KKOO
  MIC of antifungal in combination with KKOO: 0.556 mg/L
C. glabrata 2001 [8]; in the presence of 2 μg/mL KKOO-NH2
  reduction of MIC of antifungal: 4 fold
C. neoformans apt1Δ
  MIC: 8 mg/L (≈ 7.32 µM)
C. neoformans apt4Δ
  MIC: 16 mg/L (≈ 14.6 µM)
C. neoformans cdc50Δ
  MIC: 4 mg/L (≈ 3.66 µM)
C. neoformans apt3Δ
  MIC: 16 mg/L (≈ 14.6 µM)
C. neoformans H99
  MIC: 16 mg/L (≈ 14.6 µM)
C. neoformans apt2Δ
  MIC: 16 mg/L (≈ 14.6 µM)
C. neoformans crm1Δ
  MIC: 16 mg/L (≈ 14.6 µM)
C. neoformans Crm1^OE
  MIC: 16 mg/L (≈ 14.6 µM)
C. neoformans MRL862
  MIC: 16 mg/L (≈ 14.6 µM)
